Patent US12691116B2, “SETBP1 and XPO1 inhibitors for the treatment of sickle cell disease and β-thalassemia” (The Henry M. Jackson Foundation for the Advancement of …, priority 2019, dated 2026)

Tests used:
MEL cells [1] = assay: Real-time RT-PCR of Hbb-bh1, Hbb-y and Hbb-b1 mRNA in MEL cells after 48 hours of treatment; type: cell-based, mouse; conditions: for effect on Hbb-bh1 mRNA level (in words) / effect on Hbb-y mRNA level (in words): 48 hours of treatment at indicated concentration; for increase in Hbb-bh1 (embryonic hemoglobin) mRNA level / increase in Hbb-y (fetal hemoglobin) mRNA level: 0.1 μM, 48 hours, relative to vehicle, normalized to Rpl4
Description: Real-time RT-PCR analysis of Hbb-bh1, Hbb-y, and Hbb-b1 mRNA levels in MEL cells after 48 hours of treatment with compound 1AA at indicated concentration or with control DMSO. Relative expression levels were calculated by normalizing to Rpl4 mRNA levels in the same sample and also to cells […] with DMSO. […]
Relative expression levels were calculated by normalizing to Rpl4 mRNA levels in the same sample and also to cells treated with DMSO.
(§1) For studies using MEL cells, the cells were treated with selected inhibitors or vehicle in a culture medium (RPM 11640 medium with 10% fetal bovine serum) for 48 hours and were subsequently harvested for analysis of relative mRNA levels of Hbb-bh1, Hbb-y, and Hbb-b1 using real-time RT-PCR. For studies using primary human CD34+ hematopoietic stem and progenitor cells, the cells were treated with inhibitors or vehicle following or concurrent with induction of erythroid differentiation using an established two-phase culture protocol (Xu et al., Genes & Development 24(8): 783-798 (2010)). Relative mRNA levels of β-like globin genes in human cells after treatment were also analyzed using real-time RT-PCR.

human erythroid cells = assay: Erythroid differentiation of human mobilized CD34+ cells, real-time RT-PCR of globin mRNA; type: cell-based; conditions: human erythroid cells from CD34+ cells, treatment from day 5 of expansion, harvested day 10 of differentiation
Source text: Human CD34^+ cells mobilized by granulocyte-colony stimulating factor (G-CSF) were induced to undergo erythroid differentiation in culture. Treatment with Compound 1AA and 1BB at indicated concentrations or vehicles (DMSO or water) were started at day 5 of expansion condition. Erythroid cells were harvested at day 10 of differentiation condition for real-time RT-PCR analysis of human embryonic […] (FIG. 8A), fetal γ (FIG. 8B), and adult β (FIG. 8C) hemoglobin mRNA levels. Relative expression levels were calculated by normalizing to RPL4 mRNA levels in the same sample and also to cells treated with DMSO. (FIG. 8D) Representative bar graphs showing mRNA levels of human embryonic and fetal hemoglobin (γ+ε) as a percentage of total β-like globin (β+γ+ε) mRNA levels after treatment with Compound 1AA and 1BB versus DMSO. Note that a level of 20% or above for embryonic and fetal hemoglobin is considered curative for sickle cell disease. **, P<0.01; ***, P<0.001; ****P<0.0001 (two-tailed Student's t test).
as §1
Primary human mobilized CD34^+ cells were initially cultured in expansion medium containing StemSpan SFEM Medium (StemCell Technologies Inc.) with 1×CC100 cytokine mix (StemCell Technologies Inc.) and 2% Penicillin-Streptomycin (Life Technologies Inc.). Cells were maintained in this expansion medium at a density of 0.1-1×10^6 cells/mL for a total of six days with media changes every two days. On day 6, cells were transferred into differentiation medium containing StemSpan SFEM Medium with 2% Penicillin-Streptomycin, 20 ng/ml SCF (Biolegend), 1 U/ml EPO (Amgen), 5 ng/ml IL-3 (Biolegend), 2 μM dexamethasone (Sigma), and 1 μM β-estradiol (Sigma). Cells were maintained at a density of 0.1-1×10^6 cells/mL in differentiation medium for 10 days with media changes every two days. Drug treatments were started at day 5 of expansion condition and maintained thereafter. Fresh drugs were added at each medium change.

SETBP1 = SETBP1 (Homo sapiens, UniProt Q9Y6X0); conditions: cited from earlier work
MEL cells [2] = assay: Real-time RT-PCR of hemoglobin mRNA in MEL cells 48 hours after removal of compound (24 hours treatment); type: cell-based, mouse; conditions: treated 24 hours, examined 48 hours after removal
Description: Real-time RT-PCR analysis of Hbb-bh1, Hbb-y, and Hbb-b1 mRNA levels in MEL cells 48 hours after removal of Compound (1AA) or KPT-185 from culture. The cells were first treated with Compound (1AA) or KPT-185 for 24 hours. Relative expression levels were calculated by normalizing to Rpl4 mRNA levels in the same sample and also to cells treated with DMSO.
A further experiment examined whether continuous treatment of Compound (1AA) and KPT-185 as exemplary SETBP1 and XPO1 inhibitors, respectively, was required for activation of Hbb-bh1 and Hbb-y expression. MEL cells were treated with Compound (1AA) and KPT-185 for 24 hours and the Hbb-bh1 and Hbb-y mRNA levels were then examined at 48 hours after their removal.

[3] = test system: SETBP1 interaction with XPO1; conditions: cited from earlier work

Chain of SETBP1 (Q9Y6X0 whole entry): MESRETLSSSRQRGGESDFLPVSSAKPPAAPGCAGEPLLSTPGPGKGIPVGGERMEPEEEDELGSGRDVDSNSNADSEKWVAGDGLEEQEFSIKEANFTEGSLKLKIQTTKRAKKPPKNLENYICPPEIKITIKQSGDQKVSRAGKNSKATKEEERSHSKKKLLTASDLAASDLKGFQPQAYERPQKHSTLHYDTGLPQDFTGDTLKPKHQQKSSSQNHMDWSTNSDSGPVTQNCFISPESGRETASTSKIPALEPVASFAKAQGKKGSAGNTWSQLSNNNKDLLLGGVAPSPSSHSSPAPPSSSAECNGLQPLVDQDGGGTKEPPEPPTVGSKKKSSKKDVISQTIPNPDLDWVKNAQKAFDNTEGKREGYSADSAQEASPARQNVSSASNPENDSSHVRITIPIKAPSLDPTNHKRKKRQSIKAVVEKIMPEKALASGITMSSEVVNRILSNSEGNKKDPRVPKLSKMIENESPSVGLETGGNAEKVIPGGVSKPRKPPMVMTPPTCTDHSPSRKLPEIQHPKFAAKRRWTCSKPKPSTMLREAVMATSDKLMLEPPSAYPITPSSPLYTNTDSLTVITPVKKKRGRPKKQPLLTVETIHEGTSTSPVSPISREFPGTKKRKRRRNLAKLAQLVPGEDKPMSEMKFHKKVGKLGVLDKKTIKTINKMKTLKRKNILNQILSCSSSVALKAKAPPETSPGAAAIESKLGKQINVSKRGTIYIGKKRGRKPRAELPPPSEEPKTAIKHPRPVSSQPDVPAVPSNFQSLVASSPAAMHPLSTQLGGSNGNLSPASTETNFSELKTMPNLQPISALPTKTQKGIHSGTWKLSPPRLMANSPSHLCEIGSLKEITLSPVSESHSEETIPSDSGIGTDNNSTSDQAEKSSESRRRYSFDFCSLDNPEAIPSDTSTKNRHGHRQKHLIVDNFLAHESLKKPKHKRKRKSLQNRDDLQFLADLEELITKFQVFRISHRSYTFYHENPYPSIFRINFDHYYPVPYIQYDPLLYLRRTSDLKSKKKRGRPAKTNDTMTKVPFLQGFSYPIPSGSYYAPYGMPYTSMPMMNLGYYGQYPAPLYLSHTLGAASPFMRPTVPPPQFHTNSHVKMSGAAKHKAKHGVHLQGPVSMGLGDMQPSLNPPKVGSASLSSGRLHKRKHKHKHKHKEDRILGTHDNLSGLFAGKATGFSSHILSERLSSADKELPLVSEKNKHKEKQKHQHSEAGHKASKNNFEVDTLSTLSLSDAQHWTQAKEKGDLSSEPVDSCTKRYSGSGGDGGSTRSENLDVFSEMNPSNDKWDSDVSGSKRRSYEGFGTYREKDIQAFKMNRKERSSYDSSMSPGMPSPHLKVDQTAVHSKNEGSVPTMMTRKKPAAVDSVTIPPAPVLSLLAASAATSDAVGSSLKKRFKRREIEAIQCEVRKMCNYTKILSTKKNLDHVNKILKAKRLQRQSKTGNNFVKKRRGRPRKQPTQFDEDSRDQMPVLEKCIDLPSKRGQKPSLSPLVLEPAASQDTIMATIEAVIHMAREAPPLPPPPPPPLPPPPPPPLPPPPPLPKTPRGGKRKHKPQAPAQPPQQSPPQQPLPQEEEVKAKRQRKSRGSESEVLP

| Compound | effect on Hbb-bh1 mRNA level (in words) (MEL cells [1]) | effect on Hbb-y mRNA level (in words) (MEL cells [1]) | effect on adult hemoglobin Hbb-b1 mRNA level (MEL cells [1]; 48 hours of treatment) | human embryonic hemoglobin mRNA level (human erythroid cells) | human fetal γ hemoglobin mRNA level (human erythroid cells) | inhibition of SETBP1 (transcriptional activity) (SETBP1) | increase in Hbb-bh1 (embryonic hemoglobin) mRNA level (MEL cells [1]) | increase in Hbb-y (fetal hemoglobin) mRNA level (MEL cells [1]) | Hbb-bh1 mRNA level after removal of compound (MEL cells [2]) | Hbb-y mRNA level after removal of compound (MEL cells [2]) | blocking of SETBP1 interaction with cofactor XPO1 [3] | Hbb-bh1 mRNA level compared to cells treated with hydroxyurea (MEL cells [1]; 48 hours of treatment) [fold] |
| --- | --- | --- | --- | --- | --- | --- | --- | --- | --- | --- | --- | --- |
| NC(=O)/C(=C/n1cnc(-c2cc(C(F)(F)F)cc(C(F)(F)F)c2)n1)c1cncnc1 [KPT-8602, reference compound] | significantly increase | significantly increase |  |  |  |  |  |  |  |  |  |  |
| CCN(CC)CC[n+]1ccc2c(C)c3[nH]c4ccc(O)cc4c3c(C)c2c1.[Cl-] [Compound (1BB)] | significantly increase | significantly increase | minor effects | significantly increased | significantly increased | inhibitor |  |  |  |  |  |  |
| O=C(/C=C\n1cnc(-c2cc(C(F)(F)F)cc(C(F)(F)F)c2)n1)NNc1cnccn1 [KPT-330, reference compound] |  | significantly increase |  |  |  |  |  |  |  |  |  |  |
| Cc1c2cc[n+](CCN3CCCCC3)cc2c(C)c2c1[nH]c1ccc(O)cc12.[Br-] [Compound (1AA)] |  |  | only minor changes | significantly increased | significantly increased | inhibitor | > 8 fold | > 8 fold | Significantly elevated levels | Significantly elevated levels | blocking |  |
| COc1cc(-c2ncn(/C=C\C(=O)OC(C)C)n2)cc(C(F)(F)F)c1 [KPT-185, reference compound] |  |  |  |  |  |  | over 60 fold | over 14 fold | Significantly elevated levels | Significantly elevated levels |  | ~30 |
